This is an account of results in ChEMBL document CHEMBL1127892, “(6-oxo-3-pyridazinyl)-benzimidazoles as potent angiotensin II receptor antagonists” (Bioorg Med Chem Lett, 1994).

Where only a bound is given, the exact number is not on record here.

In assay [1] the target is T1, Angiotensin II receptor (AT-1) type-1 (Rattus norvegicus, UniProt P29089+P25095).
T1 sequence (P29089 whole entry): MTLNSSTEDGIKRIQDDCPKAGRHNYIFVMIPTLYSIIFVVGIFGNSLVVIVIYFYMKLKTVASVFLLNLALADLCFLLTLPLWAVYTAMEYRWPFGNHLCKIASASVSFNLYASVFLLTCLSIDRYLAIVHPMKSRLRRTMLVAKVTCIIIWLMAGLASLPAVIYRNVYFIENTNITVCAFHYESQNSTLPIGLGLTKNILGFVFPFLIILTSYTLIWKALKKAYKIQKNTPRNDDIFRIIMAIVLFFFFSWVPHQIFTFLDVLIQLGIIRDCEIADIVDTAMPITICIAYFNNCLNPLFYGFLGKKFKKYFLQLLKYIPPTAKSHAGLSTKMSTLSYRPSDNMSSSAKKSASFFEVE
T1 sequence (P25095 whole entry): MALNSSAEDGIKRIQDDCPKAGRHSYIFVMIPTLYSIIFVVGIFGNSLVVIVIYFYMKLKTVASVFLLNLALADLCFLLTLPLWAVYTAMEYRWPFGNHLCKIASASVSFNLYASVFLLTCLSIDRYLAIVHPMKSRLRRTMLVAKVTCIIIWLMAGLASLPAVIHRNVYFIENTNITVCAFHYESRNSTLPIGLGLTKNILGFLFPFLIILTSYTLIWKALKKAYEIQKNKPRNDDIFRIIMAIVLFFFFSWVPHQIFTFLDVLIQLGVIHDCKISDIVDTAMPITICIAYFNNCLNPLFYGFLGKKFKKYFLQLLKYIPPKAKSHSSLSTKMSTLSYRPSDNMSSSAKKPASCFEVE
Nature of the assay: Concentration required for 50% inhibition of binding against Angiotensin II receptor, type 1 in rat adrenal cortex. Format: tissue-based.

Assay [2] has as its target T2, Type-1 angiotensin II receptor (Oryctolagus cuniculus, UniProt P34976).
T2 sequence (P34976 whole entry): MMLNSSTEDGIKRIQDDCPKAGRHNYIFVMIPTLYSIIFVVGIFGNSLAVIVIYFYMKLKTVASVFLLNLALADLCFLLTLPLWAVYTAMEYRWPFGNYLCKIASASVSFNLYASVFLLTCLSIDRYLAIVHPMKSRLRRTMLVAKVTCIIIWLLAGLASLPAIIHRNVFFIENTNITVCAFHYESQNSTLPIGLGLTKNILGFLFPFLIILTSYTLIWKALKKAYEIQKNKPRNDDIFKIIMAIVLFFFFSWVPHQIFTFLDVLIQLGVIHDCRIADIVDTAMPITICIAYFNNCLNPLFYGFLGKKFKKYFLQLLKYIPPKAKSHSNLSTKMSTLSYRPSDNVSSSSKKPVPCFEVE
The assay is described as follows: Inhibitory activity against Angiotensin II receptor, type 1 induced contractions in isolated rabbit aortic rings. Format: functional.

For assay [3], the target named is T1, Angiotensin II receptor (AT-1) type-1. The assay is described as follows: In vivo percent inhibition of Angiotensin II receptor, type 1 induced increase in diastolic blood pressure in pithed rat at 3 mg/kg i.d. Format: functional, organism-based, Artery. Details: dose 3 mg/kg, route intraduodenal.
Assay [4] deals with T3, Type-1 angiotensin II receptor (Bos taurus, UniProt P25104).
T3 sequence (P25104 whole entry): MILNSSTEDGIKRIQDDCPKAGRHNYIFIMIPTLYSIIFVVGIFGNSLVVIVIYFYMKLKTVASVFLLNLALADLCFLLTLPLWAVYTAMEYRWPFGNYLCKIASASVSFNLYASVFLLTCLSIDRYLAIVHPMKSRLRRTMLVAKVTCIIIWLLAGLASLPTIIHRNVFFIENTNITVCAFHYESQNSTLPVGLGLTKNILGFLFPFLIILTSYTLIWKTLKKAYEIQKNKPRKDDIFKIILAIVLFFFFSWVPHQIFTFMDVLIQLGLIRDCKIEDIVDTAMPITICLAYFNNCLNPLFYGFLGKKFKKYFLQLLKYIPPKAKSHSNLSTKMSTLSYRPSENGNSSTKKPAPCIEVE
The assay is described as follows: Concentration required for 50% inhibition of binding against Angiotensin II receptor, type 1 in bovine adrenal cortex. Format: tissue-based.

Turning to `CCCCc1nc2ccc(C3=NNC(=O)CC3)cc2n1Cc1ccc(-c2ccccc2-c2nn[nH]n2)cc1`, the IC50 (in general, the concentration that gives 50% inhibition) in assay [1] was 0.005 µM. In the case of `CC1CC(=O)NN=C1c1ccc2nc(C3CC3)n(Cc3ccc(-c4ccccc4-c4nn[nH]n4)cc3)c2c1` (stereo unspecified), the IC50 in assay [1] is 0.0018 µM; in assay [2] it was 0.002 µM. Moreover, in assay [3], the Inhibition – broadly, the drop in the measured response relative to a control, in per cent – stood at 80%. Turning to `COC(=O)CN1N=C(c2ccc3nc(C4CC4)n(Cc4ccc(-c5ccccc5-c5nn[nH]n5)cc4)c3c2)C(C)CC1=O` (stereo unspecified), the figures for the IC50 in assay [1] and in assay [2] were 0.0032 µM and 0.004 µM, respectively. For the same molecule, the Inhibition in assay [3] came to 57%.

Take `CCCCc1nc2cc(C3=NN(Cc4ccc(-c5ccccc5-c5nn[nH]n5)cc4)C(=O)CC3C)ccc2[nH]1` (stereo unspecified): the IC50 in assay [4] amounted to 7 µM. In turn, `CCCCc1nc2ccc(-c3nnc(O)cc3C)cc2n1Cc1ccc(-c2ccccc2-c2nn[nH]n2)cc1` yielded an IC50 in assay [1] of 0.0044 µM. On the same count and under the same terms, next, `COC(=O)c1ccccc1CN1N=C(c2ccc3nc(C4CC4)n(Cc4ccc(-c5ccccc5-c5nn[nH]n5)cc4)c3c2)C(C)CC1=O` (stereo unspecified): 0.0065 µM.

For `CCCCc1nc2ccc(C3=NNC(=O)CC3C)cc2n1Cc1ccc(-c2ccccc2-c2nn[nH]n2)cc1` (stereo unspecified), the IC50 came to 0.022 µM in assay [4] and 0.0063 µM in assay [1]. As for `COc1ccc(-c2nc3cc(C4=NNC(=O)CC4C)ccc3n2Cc2ccc(-c3ccccc3-c3nn[nH]n3)cc2)cc1` (stereo unspecified), in assay [4], the IC50 came to 5.5 µM. In the case of `CN(C)C(=O)CN1N=C(c2ccc3nc(C4CC4)n(Cc4ccc(-c5ccccc5-c5nn[n-]n5)cc4)c3c2)CCC1=O.[K+]`, the IC50 is 0.0036 µM in assay [1] and 0.002 µM in assay [2]. Taken in the same sequence, the figures for `CCCc1nc2ccc(C3=NN(CC(=O)N(C)C)C(=O)CC3)cc2n1Cc1ccc(-c2ccccc2-c2nn[n-]n2)cc1.[K+]` were 0.0017 µM and 0.002 µM. Turning to `CCCCc1nc2ccc(C3=NN(CC(=O)N(C)C)C(=O)CC3C)cc2n1Cc1ccc(-c2ccccc2-c2nn[n-]n2)cc1.[K+]` (stereo unspecified), the IC50 in assay [1] is 0.0028 µM. Consider `CCCCc1nc2cc(C3=NNC(=O)CC3C)ccc2n1Cc1ccc(-c2ccccc2-c2nnn[nH]2)cc1` (stereo unspecified), for which the IC50 in assay [4] was 0.161 µM. In the case of `CN(C)C(=O)CN1N=C(c2ccc3nc(C4CC4)n(Cc4ccc(-c5ccccc5-c5nn[n-]n5)cc4)c3c2)C(C)(C)CC1=O.[K+]`, the figures for the IC50 in assay [1] and in assay [2] were 0.0047 µM and 0.002 µM, respectively. For the molecule `COc1ccc(-c2nc3ccc(C4=NNC(=O)CC4C)cc3[nH]2)cc1` (stereo unspecified) [PIMOBENDAN], the IC50 in assay [4] amounted to 17 µM. `Cc1cc(=O)n(CC(=O)N(C)C)nc1-c1ccc2nc(C3CC3)n(Cc3ccc(-c4ccccc4-c4nn[n-]n4)cc3)c2c1.[K+]` yielded an IC50 in assay [1] of 0.0036 µM. In assay [4], `COc1ccc(-c2nc3cc(C4=NN(Cc5ccc(-c6ccccc6-c6nn[nH]n6)cc5)C(=O)CC4C)ccc3[nH]2)cc1` (stereo unspecified) yielded an IC50 of 54 µM. For `CC1(C)CC(=O)NN=C1c1ccc2nc(C3CC3)n(Cc3ccc(-c4ccccc4-c4nn[n-]n4)cc3)c2c1.[K+]`, the IC50 in assay [1] turned out to be 0.0034 µM; in assay [2] it was 0.004 µM. In addition, in assay [3], the Inhibition stood at 80%. Taken in the same sequence, the figures for `Cc1cc(O)nnc1-c1ccc2nc(C3CC3)n(Cc3ccc(-c4ccccc4-c4nn[nH]n4)cc3)c2c1` were 0.0018 µM, 0.003 µM and 40%. Taken in the same sequence, the figures for `CC1CC(=O)N(CC(=O)N(C)C)N=C1c1ccc2nc(C3CC3)n(Cc3ccc(-c4ccccc4-c4nn[n-]n4)cc3)c2c1.[K+]` (stereo unspecified) were 0.0029 µM, 0.002 µM and 56%. Turning to `CCCCc1nc2ccc(C3=NNC(=O)CC3C)cc2[nH]1` (stereo unspecified), the IC50 in assay [4] was above 1000 µM.

As for `CCc1nc2ccc(C3=NN(CC(=O)N(C)C)C(=O)CC3)cc2n1Cc1ccc(-c2ccccc2-c2nn[n-]n2)cc1.[K+]`, the IC50 is 0.0016 µM in assay [1] and 0.003 µM in assay [2].
